From patent publication US20210030700A1, “COMPOSITION FOR PREVENTING AND TREATMENT OF SPINAL CORD INJURY” (NEUROBIOGEN CO.,LTD, priority 2018, published 2021)

Assays:
Format in all cases: in vivo, Sprague-Dawley rats
spinal cord injury model [1] = assay: Toluidine blue (TB) staining and TEM imaging, re-myelination of spinal cord injury site; settings: spinal cord injury model treated with KDS2010
Experimental: (§1) The animal models of spinal cord injury herein used were adult male Sprague-Dawley rats weighing 180 to 200 g, and the rats were anesthetized by intraperitoneal injection of ketamine. Laminectomy was conducted on the T9 portion to expose the spinal cord, the spinal cord was compressed for 10 seconds using a dedicated forceps (self-closed forceps, Germany) to induce spinal cord injury, and then the muscles and skin were sutured.
Specifically, the number of […], the number of cavities and a g-ratio were measured through toluidine blue (TB) staining and TEM imaging.

spinal cord injury model [2] = assay: BrdU immunofluorescence staining of spinal nerves, formation of new nerve cells; settings: spinal cord injury model treated with KDS2010; BrdU 50 mg/kg/day i.p.
Experimental: as §1
A test to determine whether or not treatment with KDS2010 has an effect of inducing differentiation of new nerve cells was conducted in order to investigate the effect of spinal cord regeneration.
Specifically, BrdU was administered at a dose of 50 mg/kg/day to test animals by i.p. injection one week before scarification, and spinal nerves were subjected to immunofluorescence staining and then observed.

[3] = tested on: spinal cord-injured rats and normal rats; assay: Pain response evaluation using a dynamic plantar test
Experimental: The animal models of spinal cord injury herein used were adult male Sprague-Dawley rats weighing 180 to 200 g, and the rats were anesthetized by intraperitoneal injection of ketamine. Laminectomy was conducted on the T9 portion to expose the spinal cord, the spinal cord was compressed for 10 seconds using a dedicated forceps (self-closed forceps, Germany) to induce spinal cord injury, and then the muscles and skin were sutured. […]
A motor function test was performed 10 times in total weekly for 10 weeks after spinal cord injury, and the recovery of hindlimb function in the animals was evaluated using the Basso-Beattie-Bresnahan (BBB) motor score. […] In the first recovery phase, the degree of the joint movement and whether or not the soles contact the floor was checked, in the second recovery phase, the degree of recovery of weighted gait was monitored, and in the final stage, the balance of the gait and the recovery of the tail were mainly observed. […] At this time, the force applied when the sole withdrawal occurred due to pain was measured.
A pain relief degree was measured using a pain response evaluation based on a dynamic plantar test after administration of KDS2010 to spinal-cord-injured rats and normal rats in the same manner as in Example 1-3 above.

[4] = tested on: spinal cord-injured rats and normal rats; assay: Basso-Beattie-Bresnahan (BBB) locomotor rating behavior test
Experimental: as §1
(§2) Of the 50 spinal cord injury animal models in total, 5 were a non-drug-administered control group (Normal), 5 were a drug-administered control group (Normal/KDS2010), 20 were a non-drug-administered group subjected to spinal cord injury (SCI), and 20 were a drug-administered group subjected to spinal cord injury (SCI/KDS2010). 2 weeks after induction of spinal cord injury, a mixture of the drug and drinking water was administered at a dose of 10 mg/kg.
A motor function test was performed 10 times in total weekly for 10 weeks after spinal cord injury, and the recovery of hindlimb function in the animals was evaluated using the Basso-Beattie-Bresnahan (BBB) motor score. The BBB score is divided into 21 points in total, and is broadly classified into 3 steps. In the first recovery phase, the degree of the joint movement and whether or not the soles contact the floor was checked, in the second recovery phase, the degree of recovery of weighted gait was monitored, and in the final stage, the balance of the gait and the recovery of the tail were mainly observed. The neuropathic pain response test upon spinal cord injury was conducted through the measurement of a change in mechanical paw withdrawal using a dynamic plantar aesthesiometer and was conducted weekly for 3 weeks after the injury causing response to the soles. This test was conducted by applying a force of 0 to 50 g to the sole of the paw of the hindlimb using a needle with a diameter of 0.5 mm for 20 seconds. At this time, the force applied when the sole withdrawal occurred due to pain was measured.
A behavior test was performed using a Basso-Beattie-Bresnahan (BBB) locomotor rating system after administration of KDS2010 to spinal-cord-injured rats and normal rats in the same manner as in Example 1-3 above. The result of the behavior test was expressed as a BBB score.

spinal cord injury model [5] = assay: Immunofluorescence staining for macrophage marker CD68 and microglia marker Ibal; settings: KDS2010-administered spinal cord injury model group
Experimental: as §1
When a spinal cord injury occurs, destroyed cells and cell clusters were observed inward from the injured site. These cells may cause an inflammatory reaction and interfere with regeneration from spinal cord injury. A test was conducted to investigate the effect of the drug KDS2010 on inflammatory reaction.
Specifically, the spinal cord injury model administered with KDS2010 was subjected to immunofluorescence staining to determine whether or not the cells were positive for the macrophage marker CD68 and the microglia marker Ibal.

[6] = tested on: spinal cord-injured rats and normal rats; assay: EC staining of the injured area (T9), myelination of spinal cord tissue
Experimental: as §1, §2
For EC staining (Eriochrome (Solochrome) cyanine staining), spinal cord tissue was obtained at 10 weeks after spinal cord injury, fixed with 4% paraformaldehyde, and dehydrated to perform freeze embedding. EC staining was performed on the injured area (thoracic vertebrae #9, T9) in 5 rats for the control group, 10 rats for the spinal cord-injured non-drug-administered group and 10 rats for the spinal cord-injured drug-administered group.
The EC staining is a staining method that can compare the areas of tissue and the myelinated part between groups because the myelinated part is stained in blue, whereas other nuclei, nerves, and non-myelinated parts appear in white.
EC staining was conducted on the injured area (thoracic vertebrae #9, T9) of the non-drug-administered control group, the drug-administered control group, the spinal cord-injured non-drug-administered group and the spinal cord-injured drug-administered group, in the same manner as in Example 1-4, and the results of myelinated parts were quantified.

[7] = SCI/KDS2010 vs SCI, 10 weeks after injury
[8] = drug-administered control group (Control/KDS2010), 10 weeks

## C[C@H](NCc1ccc(-c2ccc(C(F)(F)F)cc2)cc1)C(N)=O [KDS2010, (S)-2-(((4′-trifluoromethylbiphenyl-4-yl)methyl)amino)propanamide methanesulfonate]
Spinal cord injury model [1]
  number of cavities: rapidly decreased
  number of myelinated exons: recovered to an almost normal value
Spinal cord injury model [1]; normal range 0.79±0.0005
  g-ratio: within the normal range
Spinal cord injury model [2]
  formation of new nerve cells: exhibited newly formed nerve cells
[3]; SCI/KDS2010 vs SCI
  threshold value for pain compared to spinal cord-injured non-drug-administered group: significantly increased
[3]; drug-administered control group (Normal/KDS2010), normal rats
  threshold value for pain: high threshold value
[4]; SCI/KDS2010, last week (10 weeks after injury)
  gait and behavioral function in BBB test: balanced gait and restored behavioral function
[4]; SCI/KDS2010 vs SCI
  BBB score compared to spinal cord-injured group not administered with the drug: significantly improved
[4]; drug-administered control group (Normal/KDS2010), normal rats, 10 mg/kg in drinking water
  BBB score: 21 points
[4]; spinal cord-injured drug-administered group (SCI/KDS2010), 10 mg/kg in drinking water from 2 weeks after injury, starting at 5 weeks
  BBB score: ≥ 10 points
Spinal cord injury model [5]
  number of cells positive to CD68: significantly decreased
  number of cells positive to Ibal: significantly decreased
[6]; [7]
  total myelinated area compared to spinal cord-injured non-drug-administered group: increased
  total tissue area compared to spinal cord-injured non-drug-administered group: increased
[6]; [8]
  proportion of the total myelinated area to the total tissue area: large
  total myelinated area: large
  total tissue area: large
